Results on five compounds are retold here after US20150038541A1, “COMPOSITION AND METHODS FOR CELL MODULATION” (APOSIGNAL BIOSCIENCE LLC, priority 2012, published 2015).

The test system of data set [1] is HeLa cells. The data set can be described thus: MTS cell viability of HeLa cells treated with anticancer drug with or without AS-7 (48 hours). In kind it is cell-based, human. The settings on record: for IC50: Homo sapiens, HeLa, 48 h, 48 hours, MTS, read-out: IC50 of bortezomib (loss of HeLa cell viability). The procedure:
HeLa cells were seeded in a 96 well tissue culture plate (2000 cells per well). The compounds, 10 μM AS-7 and bortezomib (BioVision, Inc., Milpitas, Calif.) at the concentrations indicated in FIG. 1, were added the following day. AS-7 was prepared according to the Ugi reaction by combination of the four components: isocyanide (III), m-cyanobenzaldehyde (IV), 2-benzoylbenzoic acid (V), and histamine (VI) in refluxing methanol (Ref. http://www.occhem.com/synthesis/2561 2.html). The Medicinal Chemistry unit of Southern Research Institute (2000 Ninth Avenue South Birmingham, Ala. 35205) was contracted by a fee for service agreement to synthesize AS-7.
After 48 hours, MTS (3-(4,5-dimethylthiazol-2-yl)-5-(3-carboxymethoxyphenyl)-2-(4-sulfophenyl)-2H-tetrazolium) was added and absorbance was measured at 490 nm. […] Values in FIG. 1 are relative to controls that contained only the vehicle in which the drugs were dissolved. Vehicle had no effect on cell viability. Error bars in FIG. 1 are not visible if they are smaller than the symbols. […]
HeLa cells were seeded in a 96 well tissue culture plate (2000 cells per well). The compounds, 10 μM AS-7 and bortezomib at the concentrations indicated in FIG. 9 were added the following day. After 48 hours, MTS was added and absorbance was measured at 490 nm. […] Values are relative to controls that contained only the vehicle in which the drugs were dissolved. Vehicle had no effect on cell viability.

For data set [2], the system named is ovarian A2780 cells. The data set can be described thus: Crystal violet cell viability of ovarian A2780 cells, bortezomib with or without AS-7 (72 hours). In kind it is cell-based, human. The following applies: Homo sapiens, A2780, 72 h, 72 hours, crystal violet, read-out: IC50 of the cytotoxic effect of bortezomib towards ovarian A2780 cells. The procedure:
Ovarian tumor-derived cell lines, IGROV and A2780, were seeded in a 96 well tissue culture plate (2000 cells per well). The compounds, 10 μM AS-7 and bortezomib (BioVision, Inc., Milpitas, Calif.) at the concentrations indicated in the figures, were added the following day. AS-7 was prepared as described in Example I above. […] Values are relative to cells that with the vehicle in which the drugs were dissolved. Vehicle had no effect on cell viability. Error bars in FIG. 6 and FIG. 7 are not shown if they are smaller than the symbols.

Data set [3] concerns Melanoma A2620 cells. The data set can be described thus: Crystal violet cell viability of melanoma A2620 cells, bortezomib with or without AS-7 (72 hours). The data set is classed as cell-based, human. The following applies: Homo sapiens, 72 h, read-out: IC50 of bortezomib (loss of cell viability). The procedure:
Melanoma A2620 cells were seeded in a 96 well tissue culture plate (2000 cells per well). The compounds, 10 μM AS-7 and bortezomib at the concentrations indicated in FIG. 8 were added the following day. […] Values are relative to controls that contained only the vehicle in which the drugs were dissolved. Vehicle had no effect on cell viability.

Data set [4] deals with T47D cells. The data set can be described thus: MTS cell viability of breast cancer T47D cells, bortezomib with or without AS-7. In kind it is cell-based, human. The settings on record: 48 hours, MTS. The procedure: (§1) Breast cancer derived cell lines, T47D and 159C, were seeded in a 96 well tissue culture plate (2000 cells per well). The significance of these two lines of breast cancer derived cell lines is that the T47D cells positive for three markers used to optimize the chemotherapeutic treatment, namely HER2 receptor, estrogen receptor, and progesterone receptor. By contrast to the T47D cells, the 159C cells are negative for the three markers. The compounds, 10 μM AS-7 and a range of bortezomib (BioVision, Inc., Milpitas, Calif.) concentrations were added the following day. After 48 hours, MTS was added and absorbance was measured at 490 nm.

The test system of data set [5] is 159C cells. The data set can be described thus: MTS cell viability of breast cancer 159C cells, bortezomib with or without AS-7. The data set is classed as cell-based. The settings on record: 48 hours, MTS. Here is the method:
as §1

The test system of data set [6] is proteasome. The data set can be described thus: Proteasome activity measured in lysates of treated cells. In kind it is cell-based. The following applies: bortezomib treated HeLa cells; data not shown. From the text: (§2) The cytotoxic action of bortezomib is known to be mediated by proteasome inhibition and the induction of apoptosis.
For data set [7], the system named is caspase-3. The data set can be described thus: Caspase-3 activity measured in lysates of treated HeLa cells. The following applies: bortezomib treated HeLa cells; data not shown. The data set is classed as cell-based.
Excerpt: as §2

The conditions of data set [8]: cited from earlier work.
The test system of data set [9] is solid tumors. The following applies: phase I and II clinical trials; single agent or in combination with several anticancer drugs; cited from earlier work.
For data set [10], the system named is HeLa cells. The data set can be described thus: MTS cell viability of HeLa cells treated with anticancer drug with or without AS-7 (48 hours). The data set is classed as cell-based, human. The settings on record: Homo sapiens, HeLa, 48 h, 48 hours, MTS, read-out: IC50 of carfilzomib (loss of HeLa cell viability).
In data set [11] the test system is HeLa cells.
Method: HeLa cells were treated with 10 micrograms/ml cycloheximide alone or together with a range of TNF-alpha concentrations from 2.5 to 20 nanograms per ml. Following treatment, the cells were fixed with 4% paraformaldehyde (4° C. for 30 minutes), stained for 30 minutes with 0.5% crystal violet in 10% ethanol, and washed extensively with water to remove dye that was not bound to the cells. Cell bound crystal violet was solubilized with 10% acetic acid and absorbance was measured at 590 nm to quantitate cell growth. The time course data for each cell line were fit by nonlinear regression analysis to the equation for exponential growth using GraphPad Prism software.

Read-outs that look alike come from different tables or passages of the source. Some results are limits rather than exact numbers.

Broadly, the IC50 is the concentration that inhibits the measured activity by half.

For the compound `CC(C)CC(C=CS(C)(=O)=O)NC(=O)C(CC(C)C)NC(=O)C(CC(C)C)NC(=O)Cc1cc(I)c(O)c([N+](=O)[O-])c1` (stereo not drawn) [NLVS, 4-hydroxy-5-iodo-3-nitrophenylacetyl-Leu-Leu-leucinal-vinyl sulfone, reference compound], in [1] (in the presence of 10 μM AS-7), the “HeLa cell viability at NLVS concentrations that by themselves had little effect” value is “complete loss of viability”.

Take `CC(C)C[C@H](NC(=O)[C@H](Cc1ccccc1)NC(=O)c1cnccn1)B(O)O` [bortezomib]: the IC50 is approximately 8.8 nM in [1] (in the absence of AS-7); approximately 2.5 nM in data set [1] (in the presence of 10 μM AS-7); approximately 12.9 nM in data set [2] (in the absence of AS-7); approximately 4.2 nM in data set [2] (in the presence of 10 μM AS-7); approximately 7.3 nM in data set [3] (in the absence of AS-7, 72 hours); approximately 2.4 nM in data set [3] (in the presence of 10 μM AS-7, 72 hours). In addition, the “sensitivity to the cytotoxic action of bortezomib by itself” value in data set [4] and in data set [5] was “highly sensitive” throughout. The “proteasome activity in cell lysates” value in data set [6] was “markedly inhibited”. Also, in data set [7], the “caspase-3 activity in cell lysates” value is listed as “increased”. For the same compound, in data set [8] (after discontinuation of bortezomib treatment), the “median time to improvement from the neurotoxicity” value is on record as “three”. The “patients with Grades 1 and 2 peripheral neuropathy” value is recorded as not above 33% in [8] (patients with newly diagnosed disease under bortezomib therapy) and “up to 75%” in data set [8] (patients with recurrent disease under bortezomib therapy). In addition, the “patients with grades 3 and 4 neurotoxicity” value in data set [8] (patients with newly diagnosed disease) is on record as “up to 18%”; in [8] (patients with recurrent disease), “up to 30%”. In [9], the “activity against solid tumors” value is on record as “quite limited activity”.

With `CC(C)C[C@H](NC(=O)[C@H](CCc1ccccc1)NC(=O)CN1CCOCC1)C(=O)N[C@@H](Cc1ccccc1)C(=O)N[C@@H](CC(C)C)C(=O)[C@@]1(C)CO1` [carfilzomib], the IC50 was approximately 8.5 nM in data set [10] (in the absence of AS-7) and approximately 2.5 nM in [10] (in the presence of 10 μM AS-7).

Turning to `C[C@@H]1C[C@@H]([C@H](O)CC2CC(=O)NC(=O)C2)C(=O)[C@@H](C)C1` [cycloheximide, reference compound], in data set [11] (10 micrograms/ml cycloheximide alone, 24 hour interval, absence or presence of AS-7), the “effect on HeLa cell proliferation and cell death” value is recorded as “cytostatic, but not cytotoxic”.

With TNF-alpha, the “cytotoxicity to HeLa cells” value in [11] (TNF-alpha in combination with cycloheximide, apparent within six hours) is given as “rapidly cytotoxic”.
